Test results taken from patent US9504675B2, “Alpha-ketoheterocycles and methods of making and using” (The Scripps Research Institute, priority 2011, dated 2016).
Read-outs that look alike come from different tables or passages of the source.

Target: T1, recombinant rat FAAH (rFAAH) (Rattus norvegicus, UniProt P97612)
T1 construct: The truncated rat FAAH (rFAAH) was expressed in E. coli and purified; made in house; host or cells: Escherichia coli
T1 sequence (P97612 30-579 limits assumed): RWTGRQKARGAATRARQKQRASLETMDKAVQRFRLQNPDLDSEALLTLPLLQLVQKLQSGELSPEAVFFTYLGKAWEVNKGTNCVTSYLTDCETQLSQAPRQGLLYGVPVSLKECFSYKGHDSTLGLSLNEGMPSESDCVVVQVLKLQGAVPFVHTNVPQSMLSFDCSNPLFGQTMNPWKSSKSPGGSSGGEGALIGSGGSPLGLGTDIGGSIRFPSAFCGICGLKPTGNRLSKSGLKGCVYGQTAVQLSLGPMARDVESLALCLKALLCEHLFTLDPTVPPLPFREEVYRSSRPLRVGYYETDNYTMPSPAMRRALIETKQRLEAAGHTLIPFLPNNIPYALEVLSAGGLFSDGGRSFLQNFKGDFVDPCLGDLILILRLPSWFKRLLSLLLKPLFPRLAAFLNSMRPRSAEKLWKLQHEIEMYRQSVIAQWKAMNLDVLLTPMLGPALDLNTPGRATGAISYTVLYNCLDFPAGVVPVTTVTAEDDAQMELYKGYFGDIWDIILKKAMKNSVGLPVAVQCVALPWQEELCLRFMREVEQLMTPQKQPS
Experiment: Enzyme assay: inhibition of purified recombinant rat FAAH, 14C-oleamide hydrolysis, Ki by Dixon plot
Type: biochemical
Settings: for potency of more active (S)-enantiomer over (R)-enantiomer: ratio of FAAH inhibition between enantiomers
Experimental: Enzyme assays were performed at 20-23° C. with purified recombinant rat FAAH expressed in Escherichia coli or with solubilized COS-7 membrane extracts from cells transiently transfected with human FAAH cDNA (where specifically indicated) in a buffer of 125 mM Tris/1 mM EDTA/0.2% glycerol/0.02% Triton X-100/0.4 mM Hepes, pH 9.0.
^14C-labeled oleamide was prepared from ^14C-labeled oleic acid. The truncated rat FAAH (rFAAH) was expressed in E. coli and purified. The purified recombinant rFAAH was used in the inhibition assays unless otherwise indicated. The full-length human FAAH (hFAAH) was expressed in COS-7 cells as described, and the lysate of hFAAH-transfected COS-7 cells was used in the inhibition assays where explicitly indicated.
The inhibition assays were performed as follows. […] The enzyme reaction was terminated by transferring 20 μL of the reaction mixture to 500 μL of 0.1 N HCl at three different time points. The ^14C-labeled oleamide (substrate) and oleic acid (product) were extracted with EtOAc and analyzed by TLC as detailed. The Ki of the inhibitor was calculated using a Dixon plot as described (standard deviations are provided in the Supporting Information tables).

[1] = Ki, Table 2, (S)-enantiomer, 1,2,3,4-tetrahydronaphthalene C2 acyl side chain
[2] = Ki, Table 2, (R)-enantiomer, 1,2,3,4-tetrahydronaphthalene C2 acyl side chain
[3] = Ki, Table 3, tentatively assigned (S)-enantiomer, indane C2 acyl side chain
[4] = Ki, Table 4, (S)-enantiomer, additional FAAH inhibitors
[5] = Ki, Table 3, (R)-enantiomer, indane C2 acyl side chain
[6] = Ki, Table 4, (R)-enantiomer, additional FAAH inhibitors

COC(=O)c1cccc(-c2cnc(C(=O)C3CCc4cc(Oc5ccccc5)ccc4C3)o2)n1 (single isomer, unassigned) [(S)-13, Methyl 6-(2-(6-Phenoxy-1,2,3,4-tetrahydronaphthalene-2-carbonyl)oxazol-5-yl)picolinate]
Ki [1]: 2.2 nM

COC(=O)c1cnc(C(=O)C2CCc3cc(OCc4ccccc4)ccc3C2)o1 (single isomer, unassigned) [(R)-16, Methyl 2-(6-(Benzyloxy)-1,2,3,4-tetrahydronaphthalene-2-carbonyl)oxazole-5-carboxylate]
Ki [2]: 53 nM

COC(=O)c1cccc(-c2cnc(C(=O)C3CCc4cc(-c5ccccc5)ccc4C3)o2)n1 (single isomer, unassigned) [(S)-7, Methyl 6-(2-(6-Phenyl-1,2,3,4-tetrahydronaphthalene-2-carbonyl)oxazol-5-yl)picolinate]
Ki [1]: 27 nM

N#Cc1cnc(C(=O)C2CCc3cc(Oc4ccccc4)ccc3C2)o1 (single isomer, unassigned) [(S)-11, 2-(6-Phenoxy-1,2,3,4-tetrahydronaphthalene-2-carbonyl)oxazole-5-carbonitrile]
Ki [1]: 1.3 nM

COC(=O)c1cccc(-c2cnc(C(=O)C3Cc4ccc(Oc5ccccc5)cc4C3)o2)n1 (single isomer, unassigned) [(S)-28]
Ki [3]: 98 nM

O=C(c1nnc(-c2ccccn2)o1)C1CCc2cc(Oc3ccccc3)ccc2C1 (single isomer, unassigned) [(S)-36, (6-Phenoxy-1,2,3,4-tetrahydronaphthalen-2-yl)(5-(pyridin-2-yl)-1,3,4-oxadiazol-2-yl)methanone]
Ki [4]: 1 nM

O=C(O)c1cccc(-c2cnc(C(=O)C3CCc4cc(-c5ccccc5)ccc4C3)o2)n1 (single isomer, unassigned) [(R)-8, 6-(2-(6-Phenyl-1,2,3,4-tetrahydronaphthalene-2-carbonyl)oxazol-5-yl)picolinic acid]
Ki [2]: 500 nM

O=C(O)c1cccc(-c2cnc(C(=O)C3Cc4ccc(Oc5ccccc5)cc4C3)o2)n1 (single isomer, unassigned) [(R)-29, 6-(2-(5-Phenoxyindane-2-carbonyl)oxazol-5-yl)picolinic acid]
Ki [5]: 550 nM

O=C(c1ncc(-c2ccccn2)o1)C1Cc2ccc(OCc3ccccc3)cc2C1 (single isomer, unassigned) [(R)-31, (5-(Benzyloxy)indan-2-yl)(5-(pyridin-2-yl)oxazol-2-yl)methanone]
Ki [5]: 110 nM

COC(=O)c1cccc(-c2cnc(C(=O)C3CCc4cc(-c5ccccc5)ccc4C3)o2)n1 (single isomer, unassigned) [(R)-7, Methyl 6-(2-(6-Phenyl-1,2,3,4-tetrahydronaphthalene-2-carbonyl)oxazol-5-yl)picolinate]
Ki [2]: 700 nM

COC(=O)c1cnc(C(=O)C2CCc3cc(Oc4ccccc4)ccc3C2)o1 (single isomer, unassigned) [(R)-10, Methyl 2-(6-Phenoxy-1,2,3,4-tetrahydronaphthalene-2-carbonyl)oxazole-5-carboxylate]
Ki [2]: 59 nM

O=C(c1ncc(-c2ccccn2)o1)C1CCc2ccccc2C1 (stereo not drawn) [Compound 38, (5-(Pyridin-2-yl)oxazol-2-yl)(1,2,3,4-tetrahydronaphthalen-2-yl)methanone]
Ki relative to the FAAH inhibitor lacking the conformational constraints (Ki=200 nM): 2 fold | Ki (Ki): 430 nM

O=C(O)c1cccc(-c2cnc(C(=O)C3CCc4cc(OCc5ccccc5)ccc4C3)o2)n1 (single isomer, unassigned) [(S)-20, 6-(2-(6-(Benzyloxy)-1,2,3,4-tetrahydronaphthalene-2-carbonyl)oxazol-5-yl)picolinic acid]
Ki [1]: 34 nM

O=C(c1ncco1)C1CCc2cc(Oc3ccccc3)ccc2C1 (single isomer, unassigned) [(R)-9, Oxazol-2-yl(6-phenoxy-1,2,3,4-tetrahydronaphthalen-2-yl)methanone]
Ki [2]: 410 nM

O=C(c1ncc(I)o1)C1CCc2cc(OCc3ccccc3)ccc2C1 (stereo not drawn) [Compound 21, (6-(Benzyloxy)-1,2,3,4-tetrahydronaphthalen-2-yl)(5-iodooxazol-2-yl)methanone]
potency of more active (S)-enantiomer over (R)-enantiomer: ca. 200 fold

O=C(c1nnco1)C1CCc2cc(Oc3ccccc3)ccc2C1 (single isomer, unassigned) [(R)-34, (1,3,4-Oxadlazol-2-yl)(6-phenoxy-1,2,3,4-tetrahydronaphthalen-2-yl)methanone]
Ki [6]: 1.4 nM

O=C(c1ncc(-c2ccccn2)o1)C1Cc2ccc(OCc3ccccc3)cc2C1 (single isomer, unassigned) [(S)-31, (5-(Benzyloxy)indan-2-yl)(5-(pyridin-2-yl)oxazol-2-yl)methanone]
Ki [3]: 1.4 nM

O=C(c1ncc(-c2ccccn2)o1)C1CCc2ccccc2C1 (single isomer, unassigned) [(R)-38, (5-(Pyridin-2-yl)oxazol-2-yl)(1,2,3,4-tetrahydronaphthalen-2-yl)methanone]
Ki [6]: 3200 nM

O=C(c1ncco1)C1Cc2ccc(Oc3ccccc3)cc2C1 (single isomer, unassigned) [(S)-26, Oxazol-2-yl(5-phenoxyindan-2-yl)methanone]
Ki [3]: 10 nM

O=C(O)c1cccc(-c2cnc(C(=O)C3CCc4cc(Oc5ccccc5)ccc4C3)o2)n1 (single isomer, unassigned) [(S)-14, 6-(2-(6-Phenoxy-1,2,3,4-tetrahydronaphthalene-2-carbonyl)oxazol-5-yl)picolinic acid]
Ki [1]: 25 nM

O=C(c1ncc(-c2ccccn2)o1)C1Cc2ccc(-c3ccccc3)cc2C1 (single isomer, unassigned) [(R)-23, (5-Phenylindan-2-yl)-(5-(pyridin-2-yl)oxazol-2-yl)methanone]
Ki [5]: 600 nM

O=C(c1ncc(-c2ccccn2)o1)C1Cc2ccc(Oc3ccccc3)cc2C1 (single isomer, unassigned) [(S)-27, (5-Phenoxyindan-2-yl)(5-(pyridin-2-yl)oxazol-2-yl)methanone]
Ki [3]: 2.1 nM

O=C(O)c1cccc(-c2cnc(C(=O)C3Cc4ccc(OCc5ccccc5)cc4C3)o2)n1 (single isomer, unassigned) [(S)-33, 6-(2-(5-(Benzyloxy)indane-2-carbonyl)oxazol-5-yl)picolinic acid]
Ki [3]: 51 nM

O=C(c1ncco1)C1Cc2ccc(OCc3ccccc3)cc2C1 (racemic) [Compound 30, (5-(Benzyloxy)indan-2-yl)(oxazol-2-yl)methanone]
Ki (Table 3, racemate (enantiomers not separable), indane C2 acyl side chain, read-out: Ki): 24 nM

O=C(O)c1cccc(-c2cnc(C(=O)C3CCc4cc(Oc5ccccc5)ccc4C3)o2)n1 (single isomer, unassigned) [(R)-14, 6-(2-(6-Phenoxy-1,2,3,4-tetrahydronaphthalene-2-carbonyl)oxazol-5-yl)picolinic acid]
Ki [2]: 220 nM

O=C(O)c1cccc(-c2cnc(C(=O)C3CCc4cc(OCc5ccccc5)ccc4C3)o2)n1 (single isomer, unassigned) [(R)-20, 6-(2-(6-(Benzyloxy)-1,2,3,4-tetrahydronaphthalene-2-carbonyl)oxazol-5-yl)picolinic acid]
Ki [2]: 740 nM

O=C(c1ncc(-c2ccccn2)o1)C1Cc2ccccc2C1 [Compound 40, (Indan-2-yl)(5-(pyridin-2-yl)oxazol-2-yl)methanone]
Ki relative to the FAAH inhibitor lacking the conformational constraints (Ki=200 nM): 5 fold | Ki (read-out: Ki): 1100 nM

COC(=O)c1cnc(C(=O)C2CCc3cc(Oc4ccccc4)ccc3C2)o1 (single isomer, unassigned) [(S)-10, Methyl 2-(6-Phenoxy-1,2,3,4-tetrahydronaphthalene-2-carbonyl)oxazole-5-carboxylate]
Ki [1]: 5.4 nM

O=C(c1ncco1)C1CCc2ccccc2C1 (stereo not drawn) [Compound 37, Oxazol-2-yl(1,2,3,4-tetrahydronaphthalen-2-yl)methanone]
improvement in potency relative to the corresponding oxazole 9 ((S)-enantiomer): 4-5 fold | Ki (Ki, first of the two enantiomers, text b169, enantiomer distinction 5.1 vs 12 μM): 5100 nM | Ki (Ki, second of the two enantiomers, text b169, enantiomer distinction 5.1 vs 12 μM): 12000 nM | potency of more active (S)-enantiomer over (R)-enantiomer: ca. 2 fold

O=C(c1ncc(-c2ccccn2)o1)C1CCc2ccccc2C1 (single isomer, unassigned) [(S)-38, (5-(Pyridin-2-yl)oxazol-2-yl)(1,2,3,4-tetrahydronaphthalen-2-yl)methanone]
Ki [4]: 430 nM

O=C(c1ncco1)C1Cc2ccc(-c3ccccc3)cc2C1 (single isomer, unassigned) [(S)-22, Oxazol-2-yl(5-phenylindan-2-yl)methanone]
Ki [3]: 27 nM
